What was measured:
Keap1 C77S = target: T1, Keap1 C77S (Homo sapiens, UniProt Q14145, C77S); test: ITC titration of PBA with Keap1-C77S; format: binding; settings: 25 ℃
T1 construct: His (N); made in house; host or cells: E. coli BL21 (DE3)
Experimental: The Keap1 was amplified by PCR using a human cDNA library, and was subcloned into the vector pET28-TEV, which contained one tobacco etch virus (TEV) protease cleavage site at the upstream multiple cloning site. The protein was expressed in E. coli BL21 (DE3) cells and incubated at 37 °C until the OD600 value reached 0.6, using 0.2 mM isopropyl β-D-1-thiogalactopyranoside (IPTG) overnight induction at 18 °C. The cells were isolated by centrifugation, resuspended in ice-cold lysis buffer and lysed by cryogenic overpressure cell breaker at 1,200 psi. The lysates were centrifuged for 60 min at 14,000 rpm to obtain the supernatant. Gravity flow purification of Keap1 protein was obtained at room temperature using 1 mL of Ni-NTA and eluted in buffer containing 250 mM imidazole, followed by 1 mL of HiTrap QHP for the second step purification. The final protein was purified and validated by Superdex 200 10/300GL resin.
The mutant plasmid DNA was obtained by PCR. The PCR products were cleaved by DpnI restriction enzymes. The restriction endonuclease-cleaved mixture was subsequently transformed into E. coli DH5α. Colonies were evaluated by colony PCR and sequenced. The mutant plasmid was transformed into E. coli BL21 (DE3) after successful sequencing. The steps for expression and purification of all recombinants were described above.
Isothermal calorimetry (ITC) titration experiments were performed at 25 °C. WT Keap1, Keap1 mutants and PBA were dissolved in binding buffer (40 mM Tris-HCl pH 8.0, 250 mM NaCl). In a typical experiment, 60 μL of PBA (1 mM) was injected 19 times at 2-min intervals from a stirring syringe into the sample cell containing 300 μL of WT protein or mutants (30 μM). The first injection was 0.4 μL of PBA, and the subsequent 18 injections were 2 μL each time. The site-binding models were determined by using MicroCal Origin software.

Nrf2 = Nrf2 nuclear translocation; format: cell-based, rat; settings: PBA for 6 h
Experimental: Total protein was isolated from H9c2 cells, primary mouse cardiomyocytes, RAW264.7 cells and heart tissue using 1X RIPA buffer containing phosphatase and proteinase inhibitors at 4 °C. After measurement of the concentration, the cell lysates were separated by sodium dodecyl sulphate polyacrylamide gel electrophoresis (SDS-PAGE) and transferred to polyvinylidene fluoride (PVDF) membranes. The membranes were blocked in Tris-buffered saline-Tween 20 (TBST) buffer with 5% BSA for 1 h and incubated with primary antibodies (1:1000 dilution) overnight at 4 °C. After the membranes was washed by TBST buffer for three times, they were incubated with horseradish peroxidase (HRP)-conjugated secondary mouse or rabbit antibodies (1:3,000 dilution) at room temperature (RT) for 1.5 h and then detected by SuperEnhanced chemiluminescence (ECL) reaction reagents (GBCBIO Technologies Inc., Guangzhou, Guangdong, China). […] After letting the membranes stand for 1-2 min, the bands of the respective proteins were detected with the exposure time of 10 ~60 s.
According to previous experiences, Nrf2 nucleus translocation could be detected at 6 h. […] After several washes with PBS, the bound antibodies were detected by Alexa Fluor 594-conjugated goat anti-rabbit or Alexa Fluor 488-conjugated goat anti-mouse IgG secondary antibody at RT for 1 h. […]

[1] = test system: T2, interaction of Keap1 and Cul3; test: Co-IP of Keap1 and Cul3 in 293T cells; format: cell-based, human
T2 construct: expressed in transfected cells; host or cells: 293T
Experimental: Alkylation of the BTB domain of Keap1 by covalent modifiers contributes to the disruption of the Keap1-Cul3 interactions, leading to Nrf2 activation. Next, we investigated the effect of PBA on the modulation of Nrf2 ubiquitination as Nrf2 stability is controlled by ubiquitin-mediated proteasomal degradation. First, 3X Flag-Keap1, Myc-Nrf2 and Ub plasmids were transfected into 293T cells and then, the cells were treated with 30 μM PBA for 20 h and 5 μM MG132 for another 4 h. Cell lysates were pulled down using anti-Myc beads, and immunopurified Nrf2 was examined for the occurrence of Ub by western blotting. […]
Figure 6 PBA suppresses Keap1-mediated ubiquitination of Nrf2 by disrupting the interaction between Cul3 and Keap1. […] The cell lysates were immunoprecipitated using anti-Myc beads, and the ubiquitination level was evaluated using the anti-Ub antibody. […] The cell lysates were immunoprecipitated with the anti-Flag antibody, and the level of Nrf2 was assessed using the anti-Nrf2 antibody. […] The cell lysates were immunoprecipitated with the anti-Flag antibody, and the level of Cul3 was measured using the anti-Cul3 antibody. #p < 0.05, ##p < 0.01, ###p < 0.001, the control vs DMSO; *p < 0.05,**p < 0.01, ***p < 0.001, PBA or tBHQ vs DMSO. […] Cell viability was measured by MTT assays. #p < 0.05, ###p < 0.001, the control vs OGD/R; **p < 0.01, ***p < 0.001, OGD/R+PBA vs OGD/R.

T1 sequence (Q14145 whole entry C77S): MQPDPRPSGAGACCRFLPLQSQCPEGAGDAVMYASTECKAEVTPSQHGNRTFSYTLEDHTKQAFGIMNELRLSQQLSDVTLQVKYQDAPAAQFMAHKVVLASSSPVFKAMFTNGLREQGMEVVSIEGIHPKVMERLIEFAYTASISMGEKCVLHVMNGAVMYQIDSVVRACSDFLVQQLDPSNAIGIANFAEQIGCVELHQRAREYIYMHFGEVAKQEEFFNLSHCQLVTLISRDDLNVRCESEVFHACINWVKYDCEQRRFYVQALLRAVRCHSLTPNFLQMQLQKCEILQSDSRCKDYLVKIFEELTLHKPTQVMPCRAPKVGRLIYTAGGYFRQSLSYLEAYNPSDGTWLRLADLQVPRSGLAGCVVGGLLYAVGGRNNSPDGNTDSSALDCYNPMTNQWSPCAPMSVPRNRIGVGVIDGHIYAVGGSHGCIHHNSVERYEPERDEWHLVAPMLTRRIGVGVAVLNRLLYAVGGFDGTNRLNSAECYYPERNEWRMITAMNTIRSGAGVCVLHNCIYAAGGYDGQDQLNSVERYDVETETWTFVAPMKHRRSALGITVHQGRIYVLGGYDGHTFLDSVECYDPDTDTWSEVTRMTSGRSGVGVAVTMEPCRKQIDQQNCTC

- Kd (Keap1 C77S): 19.5 µM
- T△S (Keap1 C77S): 3.26 ± 0 kJ/mol
- △G (Keap1 C77S): -26.9 ± 0 kJ/mol
- △H (Keap1 C77S): -23.6 ± 3.62 kJ/mol
Structure (SMILES): C=C(COC(=O)C=Cc1ccc(O)c(O)c1)C(O)COC1OC(CO)C(O)C(O)C1O (stereo not shown) [PBA, pubescenoside A]
- Nrf2 translocation into nucleus (Nrf2): significantly promoted
- disruption of Keap1 and Cul3 interaction in mutant cells ([1]; Cys77S and Cys434-Keap1 mutant cells): blocked
- interaction of Keap1 and Cul3 (Co-IP) ([1]; WT-Keap1 293T cells, 30 μM PBA 12 h): could disrupt
